Like-named read-outs stand apart in the source and are kept apart here.
Tests used:
[1] = system: Key Broadleaf Weed and Crop Species; assay: Post-emergent Test II herbicidal activity (Table 15); format: in vivo; conditions: post-emergence, 336 h, 14 d; for pest or weed control at 35 g/ha: 35 g ai/ha; for pest or weed control at 70 g/ha: 70 g ai/ha; for pest or weed control at 140 g/ha: 140 g ai/ha
Method in brief: (§1)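 Greenhouse-grown seedlings at first/second true leaf receive a track spray at 187 L/ha, using a highest rate plus two-fold serial dilutions down to 1/16×. Watering is by subirrigation to avoid wash-off. Percent injury (0-100) is judged by eye at 14 d against untreated plants.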

[2] = system: Key Grass and Sedge Weeds as well as Grass Crops; assay: Post-emergent Test II herbicidal activity (Table 16); format: in vivo; conditions: post-emergence, 336 h; for pest or weed control at 35 g/ha: 35 g ai/ha; for pest or weed control at 70 g/ha: 70 g ai/ha; for pest or weed control at 140 g/ha: 140 g ai/ha
Method in brief: as §1

[3] = Abutilon theophrasti, velvetleaf (Abutilon theophrasti), read-out: Visual Growth Reduction (%) 14 Days After Application, ABUTH
[4] = Amaranthus retroflexus, redroot pigweed (Amaranthus retroflexus), read-out: Visual Growth Reduction (%) 14 Days After Application, AMARE
[5] = Brassica napus, oilseed rape, canola (Brassica napus), read-out: Visual Growth Reduction (%) 14 Days After Application, BRSNN
[6] = Chenopodium album, lambsquarters (Chenopodium album), read-out: Visual Growth Reduction (%) 14 Days After Application, CHEAL
[7] = Euphorbia heterophylla, wild poinsettia (Euphorbia heterophylla), read-out: Visual Growth Reduction (%) 14 Days After Application, EPHHL
[8] = Helianthus annuus, sunflower (Helianthus annuus), read-out: Visual Growth Reduction (%) 14 Days After Application, HELAN
[9] = Cyperus esculentus, yellow nutsedge (Cyperus esculentus), 14 d, read-out: Visual Growth Reduction (%) 14 Days After Application, CYPES
[10] = Oryza sativa, rice (Oryza sativa), 14 d, read-out: Visual Growth Reduction (%) 14 Days After Application, ORYSA
[11] = Setaria faberi, giant foxtail (Setaria faberi), 14 d, read-out: Visual Growth Reduction (%) 14 Days After Application, SETFA
[12] = Triticum aestivum, wheat, spring (Triticum aestivum), 14 d, read-out: Visual Growth Reduction (%) 14 Days After Application, TRZAS
[13] = Zea mays, maize, corn (Zea mays), 14 d, read-out: Visual Growth Reduction (%) 14 Days After Application, ZEAMX
[14] = Echinochloa crus-galli, barnyardgrass (Echinochloa crus-galli), 14 days after application, read-out: Visual Growth Reduction (%) 14 Days After Application ECHCG
[15] = Oryza sativa, rice (Oryza sativa), 14 days after application, read-out: Visual Growth Reduction (%) 14 Days After Application ORYSA
[16] = Setaria faberi, giant foxtail (Setaria faberi), 14 days after application, read-out: Visual Growth Reduction (%) 14 Days After Application SETFA
[17] = Triticum aestivum, wheat, spring (Triticum aestivum), 14 days after application, read-out: Visual Growth Reduction (%) 14 Days After Application TRZAS
[18] = Zea mays, maize, corn (Zea mays), 14 days after application, read-out: Visual Growth Reduction (%) 14 Days After Application ZEAMX

Compound | pest or weed control at 35 g/ha [1, 3] | pest or weed control at 70 g/ha [1, 3] | pest or weed control at 140 g/ha [1, 3] | pest or weed control at 35 g/ha [1, 4] | pest or weed control at 70 g/ha [1, 4] | pest or weed control at 140 g/ha [1, 4] | pest or weed control at 35 g/ha [1, 5] | pest or weed control at 70 g/ha [1, 5] | pest or weed control at 140 g/ha [1, 5] | pest or weed control at 35 g/ha [1, 6] | pest or weed control at 70 g/ha [1, 6] | pest or weed control at 140 g/ha [1, 6] | pest or weed control at 70 g/ha [1, 7] | pest or weed control at 35 g/ha [1, 8] | pest or weed control at 70 g/ha [1, 8] | pest or weed control at 140 g/ha [1, 8] | other results
COC(=O)c1nc(-c2ccc(Cl)c3occc23)nc(N)c1OC [Compound 2.21] | 30 to 44% | 60 to 74% | 60 to 74% | 95 to 100% | 95 to 100% | 95 to 100% | 30 to 44% | 30 to 44% | 45 to 59% | 85 to 94% | 85 to 94% | 95 to 100% | 0 to 29% | 60 to 74% | 75 to 84% | 75 to 84% | pest or weed control at 35 g/ha [1, 7]: 0 to 29%; pest or weed control at 140 g/ha [1, 7]: 0 to 29%; pest or weed control at 35 g/ha [2, 9]: 0 to 29%; pest or weed control at 70 g/ha [2, 9]: 0 to 29%; pest or weed control at 140 g/ha [2, 9]: 0 to 29%; pest or weed control at 35 g/ha [2, 10]: 0 to 29%; pest or weed control at 70 g/ha [2, 10]: 0 to 29%; pest or weed control at 140 g/ha [2, 10]: 0 to 29%; pest or weed control at 35 g/ha [2, 11]: 0 to 29%; pest or weed control at 70 g/ha [2, 11]: 0 to 29%; pest or weed control at 140 g/ha [2, 11]: 0 to 29%; pest or weed control at 35 g/ha [2, 12]: 0 to 29%; pest or weed control at 70 g/ha [2, 12]: 0 to 29%; pest or weed control at 140 g/ha [2, 12]: 0 to 29%; pest or weed control at 35 g/ha [2, 13]: 0 to 29%; pest or weed control at 70 g/ha [2, 13]: 0 to 29%; pest or weed control at 140 g/ha [2, 13]: 0 to 29%
COC(=O)c1nc(-c2ccc3ocnc3c2)c(F)c(N)c1Cl [Compound 5.01] | 60 to 74% | 60 to 74% | 60 to 74% | 75 to 84% | 85 to 94% | 85 to 94% | 85 to 94% | 95 to 100% | 95 to 100% | 60 to 74% | 85 to 94% | 85 to 94% | 95 to 100% | 85 to 94% | 85 to 94% | 95 to 100% | pest or weed control at 35 g/ha [2, 14]: 75 to 84%; pest or weed control at 70 g/ha [2, 14]: 75 to 84%; pest or weed control at 140 g/ha [2, 14]: 85 to 94%; pest or weed control at 35 g/ha [2, 15]: 0 to 29%; pest or weed control at 70 g/ha [2, 15]: 0 to 29%; pest or weed control at 140 g/ha [2, 15]: 0 to 29%; pest or weed control at 35 g/ha [2, 16]: 0 to 29%; pest or weed control at 70 g/ha [2, 16]: 0 to 29%; pest or weed control at 140 g/ha [2, 16]: 0 to 29%; pest or weed control at 35 g/ha [2, 17]: 0 to 29%; pest or weed control at 70 g/ha [2, 17]: 0 to 29%; pest or weed control at 140 g/ha [2, 17]: 0 to 29%; pest or weed control at 35 g/ha [2, 18]: 0 to 29%; pest or weed control at 70 g/ha [2, 18]: 0 to 29%; pest or weed control at 140 g/ha [2, 18]: 0 to 29%

Source: patent publication US20170050957A1, “4-AMINO-6-(HETEROCYCLIC)PICOLINATES AND 6-AMINO-2-(HETEROCYCLIC)PYRIMIDINE-4-CARBOXYLATES AND THEIR USE AS HERBICIDES” (Dow AgroSciences LLC, priority 2013, published 2017)
